From ChEMBL document CHEMBL5303573, “Mapping human microbiome drug metabolism by gut bacteria and their genes” (Nature, 2019)

Columns and labels:
[1] = The drug is tested on Alistipes indistinctus strain: DSM22520 for biotransformation. The drug concentrations were measured before and after a 12-h incubation by liquid-chromatography-coupled mass spectrometry (LC–MS); conditions: 2 µM
[2] = The drug is tested on Eggerthella lenta strain: ATCC25559 for biotransformation. The drug concentrations were measured before and after a 12-h incubation by liquid-chromatography-coupled mass spectrometry (LC–MS); conditions: 2 µM
[3] = victivallis vadensis, 12 h, 2 µM
Description: The drug is tested on Victivallis vadensis strain: ATCC BAA-548 for biotransformation. The drug concentrations were measured before and after a 12-h incubation by liquid-chromatography-coupled mass spectrometry (LC–MS)

[4] = anaerostipes sp., 12 h, 2 µM
Description: The drug is tested on Anaerostipes sp. strain: fecal isolate for biotransformation. The drug concentrations were measured before and after a 12-h incubation by liquid-chromatography-coupled mass spectrometry (LC–MS)

[5] = The drug is tested on Eubacterium rectale strain: ATCC33656 for biotransformation. The drug concentrations were measured before and after a 12-h incubation by liquid-chromatography-coupled mass spectrometry (LC–MS); conditions: agathobacter rectalis, 2 µM
[6] = The drug is tested on Odoribacter splanchnicus strain: fecal isolate for biotransformation. The drug concentrations were measured before and after a 12-h incubation by liquid-chromatography-coupled mass spectrometry (LC–MS); conditions: 2 µM
[7] = The drug is tested on Clostridium ramosum strain: DSM1402 for biotransformation. The drug concentrations were measured before and after a 12-h incubation by liquid-chromatography-coupled mass spectrometry (LC–MS); conditions: thomasclavelia ramosa, 2 µM
[8] = The drug is tested on Salmonella typhimurium strain: LT2 for biotransformation. The drug concentrations were measured before and after a 12-h incubation by liquid-chromatography-coupled mass spectrometry (LC–MS); conditions: salmonella enterica subsp. enterica, 2 µM
[9] = clostridioides difficile, 12 h, 2 µM
Description: The drug is tested on Clostridium difficile strain: 120 for biotransformation. The drug concentrations were measured before and after a 12-h incubation by liquid-chromatography-coupled mass spectrometry (LC–MS)

[10] = The drug is tested on Clostridium spiroforme strain: DSM1552 for biotransformation. The drug concentrations were measured before and after a 12-h incubation by liquid-chromatography-coupled mass spectrometry (LC–MS); conditions: thomasclavelia spiroformis, 2 µM
[11] = The drug is tested on Clostridium hathewayi strain: DSM13479 for biotransformation. The drug concentrations were measured before and after a 12-h incubation by liquid-chromatography-coupled mass spectrometry (LC–MS); conditions: hungatella hathewayi, 2 µM

CCC(COC(=O)c1cc(OC)c(OC)c(OC)c1)(c1ccccc1)N(C)C.O=C(O)/C=C\C(=O)O (centres undefined)
Bacterial Biotransformation [1]: Compound metabolized
Bacterial Biotransformation [2]: Compound metabolized
Bacterial Biotransformation [3]: Compound metabolized
Bacterial Biotransformation [4]: Compound metabolized
Bacterial Biotransformation [5]: Compound metabolized
Bacterial Biotransformation [6]: Compound metabolized
Bacterial Biotransformation [7]: Compound NOT metabolized

O=C(NCc1ccccc1)OCCO [BURAMATE]
Bacterial Biotransformation [1]: Compound NOT metabolized
Bacterial Biotransformation [2]: Compound NOT metabolized
Bacterial Biotransformation [3]: Compound NOT metabolized
Bacterial Biotransformation [4]: Compound NOT metabolized
Bacterial Biotransformation [5]: Compound NOT metabolized
Bacterial Biotransformation [6]: Compound NOT metabolized
Bacterial Biotransformation [7]: Compound NOT metabolized

CCCCCCOC(=O)/N=C(/N)c1ccc(NCc2nc3cc(C(=O)N(CCC(=O)OCC)c4ccccn4)ccc3n2C)cc1.CS(=O)(=O)O [DABIGATRAN ETEXILATE MESYLATE]
Bacterial Biotransformation [1]: Compound NOT metabolized
Bacterial Biotransformation [2]: Compound NOT metabolized
Bacterial Biotransformation [3]: Compound NOT metabolized
Bacterial Biotransformation [4]: Compound NOT metabolized
Bacterial Biotransformation [5]: Compound NOT metabolized
Bacterial Biotransformation [6]: Compound NOT metabolized
Bacterial Biotransformation [7]: Compound NOT metabolized

CCCCc1nc(Cl)c(CO)n1Cc1ccc(-c2ccccc2-c2nn[nH]n2)cc1 [LOSARTAN]
Bacterial Biotransformation [1]: Compound NOT metabolized
Bacterial Biotransformation [2]: Compound NOT metabolized
Bacterial Biotransformation [3]: Compound NOT metabolized
Bacterial Biotransformation [4]: Compound NOT metabolized
Bacterial Biotransformation [5]: Compound NOT metabolized
Bacterial Biotransformation [6]: Compound metabolized
Bacterial Biotransformation [7]: Compound NOT metabolized

O=c1[nH]c2ccccc2n1C1CCN(CCCC(c2ccc(F)cc2)c2ccc(F)cc2)CC1 [PIMOZIDE]
Bacterial Biotransformation [8]: Compound NOT metabolized
Bacterial Biotransformation [1]: Compound NOT metabolized
Bacterial Biotransformation [3]: Compound NOT metabolized
Bacterial Biotransformation [4]: Compound NOT metabolized
Bacterial Biotransformation [5]: Compound NOT metabolized
Bacterial Biotransformation [6]: Compound NOT metabolized
Bacterial Biotransformation [7]: Compound NOT metabolized

O=C([O-])C[C@H](O)C[C@H](O)/C=C/c1c(C2CC2)nc2ccccc2c1-c1ccc(F)cc1.O=C([O-])C[C@H](O)C[C@H](O)/C=C/c1c(C2CC2)nc2ccccc2c1-c1ccc(F)cc1.[Ca+2] [PITAVASTATIN CALCIUM]
Bacterial Biotransformation [1]: Compound NOT metabolized
Bacterial Biotransformation [2]: Compound NOT metabolized
Bacterial Biotransformation [9]: Compound NOT metabolized
Bacterial Biotransformation [3]: Compound NOT metabolized
Bacterial Biotransformation [4]: Compound NOT metabolized
Bacterial Biotransformation [5]: Compound NOT metabolized
Bacterial Biotransformation [6]: Compound NOT metabolized
Bacterial Biotransformation [10]: Compound NOT metabolized
Bacterial Biotransformation [7]: Compound NOT metabolized

COc1cc2nc(N3CCN(C(=O)c4ccco4)CC3)nc(N)c2cc1OC [PRAZOSIN]
Bacterial Biotransformation [11]: Compound NOT metabolized
Bacterial Biotransformation [4]: Compound NOT metabolized
Bacterial Biotransformation [5]: Compound NOT metabolized
Bacterial Biotransformation [6]: Compound NOT metabolized
Bacterial Biotransformation [10]: Compound NOT metabolized
Bacterial Biotransformation [7]: Compound NOT metabolized

CC(N)C12CC3CC(CC(C3)C1)C2 (centres undefined) [RIMANTADINE]
Bacterial Biotransformation [1]: Compound NOT metabolized
Bacterial Biotransformation [2]: Compound NOT metabolized
Bacterial Biotransformation [3]: Compound NOT metabolized
Bacterial Biotransformation [4]: Compound NOT metabolized
Bacterial Biotransformation [5]: Compound NOT metabolized
Bacterial Biotransformation [6]: Compound NOT metabolized
Bacterial Biotransformation [7]: Compound NOT metabolized

O=C1C(CC[S+]([O-])c2ccccc2)C(=O)N(c2ccccc2)N1c1ccccc1 (centres undefined) [SULFINPYRAZONE]
Bacterial Biotransformation [1]: Compound NOT metabolized
Bacterial Biotransformation [2]: Compound metabolized
Bacterial Biotransformation [3]: Compound NOT metabolized
Bacterial Biotransformation [11]: Compound NOT metabolized
Bacterial Biotransformation [4]: Compound NOT metabolized
Bacterial Biotransformation [5]: Compound NOT metabolized
Bacterial Biotransformation [6]: Compound metabolized
Bacterial Biotransformation [10]: Compound NOT metabolized

C=CC[C@@H]1/C=C(\C)C[C@H](C)C[C@H](OC)[C@H]2O[C@@](O)(C(=O)C(=O)N3CCCC[C@H]3C(=O)O[C@H](/C(C)=C/[C@@H]3CC[C@@H](O)[C@H](OC)C3)[C@H](C)[C@@H](O)CC1=O)[C@H](C)C[C@@H]2OC.O [TACROLIMUS]
Bacterial Biotransformation [1]: Compound metabolized
Bacterial Biotransformation [2]: Compound metabolized
Bacterial Biotransformation [3]: Compound metabolized
Bacterial Biotransformation [4]: Compound metabolized
Bacterial Biotransformation [5]: Compound metabolized
Bacterial Biotransformation [6]: Compound metabolized
Bacterial Biotransformation [7]: Compound metabolized

CN(C/C=C/C#CC(C)(C)C)Cc1cccc2ccccc12 [TERBINAFINE]
Bacterial Biotransformation [1]: Compound NOT metabolized
Bacterial Biotransformation [2]: Compound NOT metabolized
Bacterial Biotransformation [3]: Compound NOT metabolized
Bacterial Biotransformation [4]: Compound NOT metabolized
Bacterial Biotransformation [5]: Compound NOT metabolized
Bacterial Biotransformation [6]: Compound NOT metabolized
Bacterial Biotransformation [7]: Compound NOT metabolized

COc1ccc(CN2CCNCC2)c(OC)c1OC.Cl.Cl [TRIMETAZIDINE DIHYDROCHLORIDE]
Bacterial Biotransformation [1]: Compound NOT metabolized
Bacterial Biotransformation [2]: Compound NOT metabolized
Bacterial Biotransformation [3]: Compound NOT metabolized
Bacterial Biotransformation [4]: Compound NOT metabolized
Bacterial Biotransformation [5]: Compound NOT metabolized
Bacterial Biotransformation [7]: Compound NOT metabolized

CC(CN(C)C)CN1c2ccccc2CCc2ccccc21.O=C(O)/C=C\C(=O)O (centres undefined) [TRIMIPRAMINE MALEATE]
Bacterial Biotransformation [1]: Compound NOT metabolized
Bacterial Biotransformation [2]: Compound NOT metabolized
Bacterial Biotransformation [3]: Compound NOT metabolized
Bacterial Biotransformation [4]: Compound NOT metabolized
Bacterial Biotransformation [5]: Compound NOT metabolized
Bacterial Biotransformation [6]: Compound NOT metabolized
Bacterial Biotransformation [7]: Compound NOT metabolized

CN1[C@@H]2CC[C@H]1C[C@@H](OC(=O)c1c[nH]c3ccccc13)C2 [TROPISETRON]
Bacterial Biotransformation [1]: Compound NOT metabolized
Bacterial Biotransformation [2]: Compound NOT metabolized
Bacterial Biotransformation [3]: Compound NOT metabolized
Bacterial Biotransformation [4]: Compound NOT metabolized
Bacterial Biotransformation [5]: Compound NOT metabolized
Bacterial Biotransformation [6]: Compound NOT metabolized
Bacterial Biotransformation [7]: Compound NOT metabolized

COc1ccc(C(CN(C)C)C2(O)CCCCC2)cc1 (centres undefined) [VENLAFAXINE]
Bacterial Biotransformation [1]: Compound NOT metabolized
Bacterial Biotransformation [2]: Compound NOT metabolized
Bacterial Biotransformation [3]: Compound NOT metabolized
Bacterial Biotransformation [4]: Compound NOT metabolized
Bacterial Biotransformation [5]: Compound NOT metabolized
Bacterial Biotransformation [6]: Compound NOT metabolized
Bacterial Biotransformation [7]: Compound NOT metabolized

CS(=O)(=O)O.O.O.O.O=C1Cc2cc(CCN3CCN(c4nsc5ccccc45)CC3)c(Cl)cc2N1 [ZIPRASIDONE MESYLATE]
Bacterial Biotransformation [1]: Compound metabolized
Bacterial Biotransformation [2]: Compound NOT metabolized
Bacterial Biotransformation [3]: Compound NOT metabolized
Bacterial Biotransformation [4]: Compound NOT metabolized
Bacterial Biotransformation [5]: Compound NOT metabolized
Bacterial Biotransformation [7]: Compound NOT metabolized

Cc1ccc(-c2nc3ccc(C)cn3c2CC(=O)N(C)C)cc1 [ZOLPIDEM]
Bacterial Biotransformation [1]: Compound NOT metabolized
Bacterial Biotransformation [2]: Compound NOT metabolized
Bacterial Biotransformation [3]: Compound NOT metabolized
Bacterial Biotransformation [4]: Compound NOT metabolized
Bacterial Biotransformation [5]: Compound NOT metabolized
Bacterial Biotransformation [6]: Compound NOT metabolized
Bacterial Biotransformation [7]: Compound NOT metabolized
